Test results reported in US9226501B2, “Pesticidal compositions and processes related thereto” (Dow AgroSciences LLC, priority 2012, dated 2016).

Key:
[1] = tested on: Beet Armyworm (BAW) (spodoptera exigua); experiment: Bioassay on beet armyworm (BAW), 128-well diet tray assay; type: in vivo; conditions: for pest or weed control at 50 µg/cm2: Spodoptera exigua, 168 h, % mortality, second instar larvae, 50 μg/cm^2 on artificial diet, five to seven days, 25° C., read-out: BAW Rating; for BAW Rating: Table 5, prophetic compounds subsequently exemplified, beet armyworm
Method: (§1) Certain molecules disclosed in this document were tested against BAW, CEW and CL using procedures described in the following examples. In the reporting of the results, the “BAW & CEW & CL Rating Table” was used (See Table Section).
Bioassays on BAW were conducted using a 128-well diet tray assay. One to five second instar BAW larvae were placed in each well (3 mL) of the diet tray that had been previously filled with 1 mL of artificial diet to which 50 μg/cm^2 of the test compound (dissolved in 50 μL of 90:10 acetone-water mixture) had been applied (to each of eight wells) and then allowed to dry. Trays were covered with a clear self-adhesive cover, and held at 25° C., 14:10 light-dark for five to seven days. Percent mortality was recorded for the larvae in each well; activity in the eight wells was then averaged. The results are indicated in the tables entitled “Table 3: Assay Results Part 1” and “Table 4: Assay Results Part 2” (See Table Section).

[2] = tested on: Cabbage Looper (CL) (Trichoplusia ni); experiment: Bioassay on cabbage looper (CL), 128-well diet tray assay; type: in vivo; conditions: for pest or weed control at 50 µg/cm2: Trichoplusia ni, 168 h, % mortality, second instar larvae, 50 μg/cm^2 on artificial diet, five to seven days, 25° C., read-out: CL Rating; for CL Rating: Table 5, prophetic compounds subsequently exemplified, cabbage looper
Method: as §1
Bioassays on CL were conducted using a 128-well diet tray assay. One to five second instar CL larvae were placed in each well (3 mL) of the diet tray that had been previously filled with 1 mL of artificial diet to which 50 μg/cm^2 of the test compound (dissolved in 50 μL of 90:10 acetone-water mixture) had been applied (to each of eight wells) and then allowed to dry. Trays were covered with a clear self-adhesive cover, and held at 25° C., 14:10 light-dark for five to seven days. Percent mortality was recorded for the larvae in each well; activity in the eight wells was then averaged. The results are indicated in the table entitled “Table 4: Assay Results Part 2” (See Table Section).

SMILES	pest or weed control at 50 µg/cm2 [1] [%]	pest or weed control at 50 µg/cm2 [2] [%]	BAW Rating [1]	CL Rating [2]
Cc1cc(/C=C/C(c2cc(Cl)c(Cl)c(Cl)c2)C(F)(F)F)cc(C)c1C(=O)N[C@H](C)C(=O)NCC(F)(F)F (stereo partly shown) [FA28]	50 to 100	50 to 100		
Cc1cc(/C=C/C(c2cc(Cl)c(Cl)c(Cl)c2)C(F)(F)F)ccc1C(=S)NCC(=O)NCC(F)(F)F (stereo not shown) [P1564]			A (50-100)	A (50-100)
C[C@@H](NC(=O)c1ccc(/C=C/C(c2ccc(Cl)c(Cl)c2)C(F)(F)F)cc1Br)C(=O)NCC(F)(F)F (stereo partly shown) [P1806]			A (50-100)	A (50-100)
C[C@@H](NC(=O)c1ccc(/C=C/C(c2cccc(OC(F)(F)F)c2)C(F)(F)F)cc1Br)C(=O)NCC(F)(F)F (stereo partly shown) [P226]			A (50-100)	A (50-100)
CC(NC(=O)CNC(=O)c1ccc(/C=C/C(c2cc(Cl)c(Cl)c(Cl)c2)C(F)(F)F)cc1C(F)(F)F)C(F)(F)F (stereo not shown) [P1591]			A (50-100)	A (50-100)
C[C@@H](NC(=O)c1ccc(/C=C/C(c2ccc(F)c(C#N)c2)C(F)(F)F)cc1Br)C(=O)NCC(F)(F)F (stereo partly shown) [P802]			A (50-100)	A (50-100)
COc1cc(C(=O)NCC(=O)NCC(F)(F)F)c(Cl)cc1/C=C/C(c1cc(Cl)c(Cl)c(Cl)c1)C(F)(F)F (stereo not shown) [FA5]	50 to 100	50 to 100		
C[C@@H](NC(=O)c1ccc(/C=C/C(c2cc(Cl)c(Cl)c(Cl)c2)C(F)(F)F)cc1)C(=O)NCC(F)(F)F (stereo partly shown) [P1603]			A (50-100)	A (50-100)
C[C@@H](NC(=O)c1ccc(/C=C/C(c2cccc(OC(F)(F)F)c2)C(F)(F)F)cc1C(F)(F)F)C(=O)NCC(F)(F)F (stereo partly shown) [P228]			A (50-100)	A (50-100)
C[C@@H](NC(=O)c1ccc(/C=C/C(c2ccc(OC(F)(F)F)c(Cl)c2)C(F)(F)F)cc1Br)C(=O)NCC(F)(F)F (stereo partly shown) [FA30]	50 to 100	50 to 100		
Nc1cc(/C=C/C(c2cc(Cl)c(F)c(Cl)c2)C(F)(F)F)ccc1C(=O)NCC(=O)NCC(F)(F)F (stereo not shown) [FA6]	50 to 100	50 to 100		
O=C(CNC(=O)c1cc(O)c(/C=C/C(c2cc(Cl)c(Cl)c(Cl)c2)C(F)(F)F)cc1Cl)NCC(F)(F)F (stereo not shown) [FA4]	50 to 100	50 to 100		
CC(C)(NC(=S)c1ccc(/C=C/C(c2cc(Cl)c(Cl)c(Cl)c2)C(F)(F)F)cc1Cl)C(=S)NCC(F)(F)F (stereo not shown) [FA10]	0 to 50	0 to 50		
CC(C)(NC(=O)c1ccc(/C=C/C(c2cc(Cl)c(Cl)c(Cl)c2)C(F)(F)F)cc1Cl)C(=S)NCC(F)(F)F (stereo not shown) [FA9]	50 to 100	50 to 100		
C[C@@H](NC(=O)c1ccc(/C=C/C(c2ccc(Br)c(Br)c2)C(F)(F)F)cc1Br)C(=O)NCC(F)(F)F (stereo partly shown) [P568]			A (50-100)	A (50-100)
O=C(CNC(=O)c1ccc(/C=C/C(c2cc(Cl)cc(C(F)(F)F)c2)C(F)(F)F)cc1Br)NCC(F)(F)F (stereo not shown) [P1411]			A (50-100)	A (50-100)
C[C@@H](NC(=O)c1ccc(/C=C/C(c2cc(Br)cc(Br)c2)C(F)(F)F)cc1Br)C(=O)NCCF (stereo partly shown) [P2041]			A (50-100)	A (50-100)
O=C(CNC(=O)c1ccc(/C=C/C(c2ccc(Cl)c(Cl)c2)C(F)(F)F)cc1Br)NCC(F)(F)F (stereo not shown) [P1776]			A (50-100)	A (50-100)
C[C@@H](NC(=O)c1ccc(/C=C/C(c2cc(Br)c(Cl)c(Br)c2)C(F)(F)F)cc1Br)C(=O)NCC(F)(F)F (stereo partly shown) [FA26]	50 to 100	50 to 100		

SMILES	pest or weed control at 50 µg/cm2 [1] [%]	pest or weed control at 50 µg/cm2 [2] [%]	BAW Rating [1]	CL Rating [2]
Cc1cc(C(/C=C/c2ccc(C(=O)N[C@H](C)C(=O)NCC(F)(F)F)c(Br)c2)C(F)(F)F)ccc1F (stereo partly shown) [P1090]			A (50-100)	A (50-100)
C[C@@H](NC(=O)c1ccc(/C=C/C(c2cc(Cl)c(Br)c(Cl)c2)C(F)(F)F)cc1Br)C(=O)NCC(F)(F)F (stereo partly shown) [FA22]	50 to 100	50 to 100		
C[C@@H](NC(=O)c1ccc(/C=C/C(c2cc(Br)cc(Br)c2)C(F)(F)F)cc1C(F)(F)F)C(=O)NCCF (stereo partly shown) [P2043]			A (50-100)	A (50-100)
CCNC(=O)[C@@H](C)NC(=O)c1ccc(/C=C/C(c2cc(Cl)c(Cl)c(Cl)c2)C(F)(F)F)cc1C(F)(F)F (stereo partly shown) [P1623]			A (50-100)	A (50-100)
C[C@@H](NC(=O)c1ccc(/C=C/C(c2ccc(Cl)c([N+](=O)[O-])c2)C(F)(F)F)cc1C(F)(F)F)C(=O)NCC(F)(F)F (stereo partly shown) [P732]			A (50-100)	A (50-100)
C[C@@H](NC(=O)c1ccc(/C=C/C(c2cc(Cl)cc(Cl)c2)C(F)(F)F)cc1C(F)(F)F)C(=O)NCC(F)(F)F (stereo partly shown) [P1698]			A (50-100)	A (50-100)
CC(C)(NC(=O)c1ccc(/C=C/C(c2cc(Cl)c(Cl)c(Cl)c2)C(F)(F)F)cc1Br)C(=O)NCC#N (stereo not shown) [FA14]	50 to 100	50 to 100		
O=C(CNC(=O)c1ccc(/C=C/C(c2cc(Cl)c(Cl)c(Cl)c2)C(F)(F)F)cc1C(F)(F)F)NCC(F)F (stereo not shown) [P1566]			A (50-100)	A (50-100)
CC(NC(=O)CNC(=O)c1ccc(/C=C/C(c2cc(Br)cc(Br)c2)C(F)(F)F)cc1C(F)(F)F)C(F)(F)F (stereo not shown) [P2011]			A (50-100)	A (50-100)
C[C@@H](NC(=O)c1ccc(/C=C/C(c2cc(Cl)cc(Cl)c2)C(F)(F)C(F)(F)F)cc1C(F)(F)F)C(=O)NCC(F)(F)F (stereo partly shown) [P1693]			A (50-100)	A (50-100)
O=C(CNC(=O)c1ccc(/C=C/C(c2cc(F)cc(C(F)(F)F)c2)C(F)(F)F)cc1Br)NCC(F)(F)F (stereo not shown) [P1340]			A (50-100)	A (50-100)
Cc1cc(C(/C=C/c2ccc(C(=O)N[C@H](C)C(=O)NCC(F)(F)F)c(C(F)(F)F)c2)C(F)(F)F)cc(C)c1F (stereo partly shown) [P516]			A (50-100)	A (50-100)
O=C(CNC(=O)c1ccc(/C=C/C(c2cc(Br)cc(Br)c2)C(F)(F)F)cc1Cl)NCC(F)(F)F (stereo not shown) [P1970]			A (50-100)	A (50-100)
C[C@@H](NC(=O)c1ccc(/C=C/C(c2cc(Cl)cc(Br)c2)C(F)(F)F)cc1Br)C(=O)NCC(F)(F)F (stereo partly shown) [P586]			A (50-100)	A (50-100)
CSc1cc(/C=C/C(c2cc(Cl)c(F)c(Cl)c2)C(F)(F)F)ccc1C(=O)NCC(=O)NCC(F)(F)F (stereo not shown) [P12]			A (50-100)	A (50-100)
C[C@@H](NC(=O)c1ccc(/C=C/C(c2ccc(Br)c(Br)c2)C(F)(F)F)cc1C(F)(F)F)C(=O)NCC(F)(F)F (stereo partly shown) [P660]			A (50-100)	A (50-100)
Cc1cc(/C=C/C(c2cc(Cl)c(Cl)c(Cl)c2)C(F)(F)F)ccc1C(=O)NCC(=O)NC(C)C(F)(F)F (stereo not shown) [P1592]			A (50-100)	A (50-100)
Cc1cc(C(/C=C/c2ccc(C(=O)N[C@H](C)C(=O)NCC(F)(F)F)c(Br)c2)C(F)(F)F)cc(C)c1F (stereo partly shown) [P514]			A (50-100)	A (50-100)
O=C(CNC(=O)c1ccc(/C=C/C(c2cc(Cl)c(Cl)c(Cl)c2)C(F)(F)F)cc1Br)NCCC(F)(F)F (stereo not shown) [FA7]	50 to 100	50 to 100		
